Data published in PMC8053501 (Diabetes, Metabolic Syndrome and Obesity: Targets and …, 2021).
Like-named read-outs stand apart in the source and are kept apart here.

What was measured:
[1] = normal mice, oral gavage, 3mg/kg
[2] = in vivo; conditions: male, ICR, mouse, po; for Cmax / half-life: oral gavage; for half-life: t1/2, mouse
[3] = test system: diabetes mellitus patients; assay: Acute kidney injury; assay type: in vivo, human; conditions: for Association with AKI, Unadjusted (95% CI) / Association with AKI, Adjusted (95% CI): metformin as reference; for Association with AKI, Adjusted (95% CI): multivariate; for Events During the 90 days (AKI): primary endpoint, first 90 days, patients above 55 years; for Total endpoint (AKI events): primary plus secondary endpoint; for Events at secondary end (AKI): secondary endpoint, after 90 days of hospital admission; for Total Percent (incidence rate of AKI at the end of the study): share of the 4966 total outcomes
[4] = Endpoint Diagnosis with 1047 Outcome
[5] = Secondary Diagnosis with 3919 Outcomes

OC[C@H]1O[C@@H](c2ccc(Cl)c(Cc3ccc(O[C@H]4CCOC4)cc3)c2)[C@H](O)[C@@H](O)[C@@H]1O [Jardiance]
Drug concentration, time course ([1]; Kidney, 0h): 0 | Drug concentration, time course ([1]; Kidney, 3h): 1800 | Drug concentration, time course ([1]; Kidney, 6h): 1200 | Drug concentration, time course ([1]; Kidney, 9h): 550 | Drug concentration, time course ([1]; Kidney, 12h): 100 | Drug concentration, time course ([1]; Kidney, 15h): 0 | Drug concentration, time course ([1]; Kidney, 18h): 0 | Drug concentration, time course ([1]; Kidney, 21h): 0 | Drug concentration, time course ([1]; Kidney, 24h): 0 | Drug concentration, time course ([1]; Liver, 0h): 0 | Drug concentration, time course ([1]; Liver, 3h): 1100 | Drug concentration, time course ([1]; Liver, 6h): 850 | Drug concentration, time course ([1]; Liver, 9h): 400 | Drug concentration, time course ([1]; Liver, 12h): 50 | Drug concentration, time course ([1]; Liver, 15h): 0 | Drug concentration, time course ([1]; Liver, 18h): 0 | Drug concentration, time course ([1]; Liver, 21h): 0 | Drug concentration, time course ([1]; Liver, 24h): 0 | Drug concentration, time course ([1]; Plasma, 0h): 0 | Drug concentration, time course ([1]; Plasma, 3h): 500 | Drug concentration, time course ([1]; Plasma, 6h): 450 | Drug concentration, time course ([1]; Plasma, 9h): 200 | Drug concentration, time course ([1]; Plasma, 12h): 0 | Drug concentration, time course ([1]; Plasma, 15h): 0 | Drug concentration, time course ([1]; Plasma, 18h): 0 | Drug concentration, time course ([1]; Plasma, 21h): 0 | Drug concentration, time course ([1]; Plasma, 24h): 0 | Tmax [2]: 1 h | Tmax ([2]; 3 mg/kg): 1 h | Cmax ([2]; 3 mg/kg, Kidney): 1740 ng/mL | Cmax ([2]; 3 mg/kg, Liver): 1150 ng/mL | Cmax ([2]; 3 mg/kg, Plasma): 412 ng/mL | half-life ([2]; 3 mg/kg, Kidney): 2.1 h | half-life ([2]; 3 mg/kg, Liver): 2.2 h | half-life ([2]; 3 mg/kg, Plasma): 1.8 h | Association with AKI, Unadjusted (95% CI) [3, 4]: 0.87 (0.69–1.12) | Association with AKI, Adjusted (95% CI) [3, 4]: 0.76 (0.58–1.18) | Association with AKI, Unadjusted (95% CI) [3, 5]: 0.83 (0.68–1.14) | Association with AKI, Adjusted (95% CI) [3, 5]: 0.85 (0.67–1.18) | Events During the 90 days (AKI) [3]: 57 | Total endpoint (AKI events) [3]: 277 | Events at secondary end (AKI) [3]: 220 | Total Percent (incidence rate of AKI at the end of the study) [3]: 5.58%

CC#CCn1c(N2CCC[C@@H](N)C2)nc2c1c(=O)n(Cc1nc(C)c3ccccc3n1)c(=O)n2C [Linagliptin, linagliptin]
Drug concentration, time course ([1]; Kidney, 0h): 0 | Drug concentration, time course ([1]; Kidney, 3h): 18,500 | Drug concentration, time course ([1]; Kidney, 6h): 12,800 | Drug concentration, time course ([1]; Kidney, 9h): 9500 | Drug concentration, time course ([1]; Kidney, 12h): 5400 | Drug concentration, time course ([1]; Kidney, 15h): 2500 | Drug concentration, time course ([1]; Kidney, 18h): 500 | Drug concentration, time course ([1]; Kidney, 21h): 0 | Drug concentration, time course ([1]; Kidney, 24h): 0 | Drug concentration, time course ([1]; Liver, 0h): 0 | Drug concentration, time course ([1]; Liver, 3h): 7500 | Drug concentration, time course ([1]; Liver, 6h): 6000 | Drug concentration, time course ([1]; Liver, 9h): 1200 | Drug concentration, time course ([1]; Liver, 12h): 300 | Drug concentration, time course ([1]; Liver, 15h): 50 | Drug concentration, time course ([1]; Liver, 18h): 0 | Drug concentration, time course ([1]; Liver, 21h): 0 | Drug concentration, time course ([1]; Liver, 24h): 0 | Drug concentration, time course ([1]; Plasma, 0h): 0 | Drug concentration, time course ([1]; Plasma, 3h): 450 | Drug concentration, time course ([1]; Plasma, 6h): 310 | Drug concentration, time course ([1]; Plasma, 9h): 50 | Drug concentration, time course ([1]; Plasma, 12h): 0 | Drug concentration, time course ([1]; Plasma, 15h): 0 | Drug concentration, time course ([1]; Plasma, 18h): 0 | Drug concentration, time course ([1]; Plasma, 21h): 0 | Drug concentration, time course ([1]; Plasma, 24h): 0 | Tmax [2]: 1 h | Tmax ([2]; 3 mg/kg): 1 h | Cmax ([2]; 3 mg/kg, Kidney): 6440 ng/mL | Cmax ([2]; 3 mg/kg, Liver): 5050 ng/mL | Cmax ([2]; 3 mg/kg, Plasma): 578 ng/mL | half-life ([2]; 3 mg/kg, Kidney): 3.7 h | half-life ([2]; 3 mg/kg, Liver): 2.8 h | half-life ([2]; 3 mg/kg, Plasma): 2.6 h | Association with AKI, Unadjusted (95% CI) [3, 4]: 0.97 (0.68–1.32) | Association with AKI, Adjusted (95% CI) [3, 4]: 0.86 (0.72–1.46) | Association with AKI, Unadjusted (95% CI) [3, 5]: 0.87 (0.72–1.21) | Association with AKI, Adjusted (95% CI) [3, 5]: 1.23 (0.73–1.65) | Events During the 90 days (AKI) [3]: 56 | Total endpoint (AKI events) [3]: 284 | Events at secondary end (AKI) [3]: 228 | Total Percent (incidence rate of AKI at the end of the study) [3]: 5.72%

N#C[C@@H]1CCCN1C(=O)CNC12CC3CC(CC(O)(C3)C1)C2 [Vildagliptin, vildagliptin]
Drug concentration, time course ([1]; Kidney, 0h): 0 | Drug concentration, time course ([1]; Kidney, 3h): 4500 | Drug concentration, time course ([1]; Kidney, 6h): 3950 | Drug concentration, time course ([1]; Kidney, 9h): 1650 | Drug concentration, time course ([1]; Kidney, 12h): 100 | Drug concentration, time course ([1]; Kidney, 15h): 25 | Drug concentration, time course ([1]; Kidney, 18h): 0 | Drug concentration, time course ([1]; Kidney, 21h): 0 | Drug concentration, time course ([1]; Kidney, 24h): 0 | Drug concentration, time course ([1]; Liver, 0h): 0 | Drug concentration, time course ([1]; Liver, 3h): 8300 | Drug concentration, time course ([1]; Liver, 6h): 4800 | Drug concentration, time course ([1]; Liver, 9h): 2900 | Drug concentration, time course ([1]; Liver, 12h): 300 | Drug concentration, time course ([1]; Liver, 15h): 50 | Drug concentration, time course ([1]; Liver, 18h): 0 | Drug concentration, time course ([1]; Liver, 21h): 0 | Drug concentration, time course ([1]; Liver, 24h): 0 | Drug concentration, time course ([1]; Plasma, 0h): 0 | Drug concentration, time course ([1]; Plasma, 3h): 7500 | Drug concentration, time course ([1]; Plasma, 6h): 3000 | Drug concentration, time course ([1]; Plasma, 9h): 1200 | Drug concentration, time course ([1]; Plasma, 12h): 600 | Drug concentration, time course ([1]; Plasma, 15h): 200 | Drug concentration, time course ([1]; Plasma, 18h): 0 | Drug concentration, time course ([1]; Plasma, 21h): 0 | Drug concentration, time course ([1]; Plasma, 24h): 0 | Tmax [2]: 0.5 h | Tmax ([2]; 3 mg/kg): 0.5 h | Cmax ([2]; 3 mg/kg, Kidney): 5870 ng/mL | Cmax ([2]; 3 mg/kg, Liver): 5030 ng/mL | Cmax ([2]; 3 mg/kg, Plasma): 765 ng/mL | Association with AKI, Unadjusted (95% CI) [3, 4]: 1.23 (0.97–1.32) | Association with AKI, Adjusted (95% CI) [3, 4]: 1.18 (0.92–1.35) | Association with AKI, Unadjusted (95% CI) [3, 5]: 1.20 (0.72–1.38) | Association with AKI, Adjusted (95% CI) [3, 5]: 1.07 (0.95–1.45) | Events During the 90 days (AKI) [3]: 79 | Total endpoint (AKI events) [3]: 316 | Events at secondary end (AKI) [3]: 237 | Total Percent (incidence rate of AKI at the end of the study) [3]: 6.36%
